The NIST ThermoML archive (doi:10.1021/je101012n)
Numbers after ± are expanded uncertainties.

Assay: mn = molality of the nth substance listed, in mol/kg
Settings: 101 kPa, Liquid, Alternating current cell with electrodes

Cl [hydrogen chloride] + O
electrical conductivity [S/m]
Settings | 278.15 K | 283.15 K | 298.15 K | 308.15 K | 318.15 K | 343.15 K | 363.15 K
m1 = 0.00011 | 0.003313 ± 1.3e-05 | 0.003683 ± 1.5e-05 | 0.004665 ± 1.9e-05 | 0.00531 ± 2.1e-05 | 0.005973 ± 2.4e-05 | 0.007487 ± 3e-05 | 0.008461 ± 3.4e-05
m1 = 0.000958 | 0.028 ± 0.0001 | 0.03088 ± 0.00012 | 0.03978 ± 0.00016 | 0.04565 ± 0.00018 | 0.05121 ± 0.0002 | 0.06414 ± 0.00026 | 0.07325 ± 0.00029
m1 = 0.00937 | 0.2714 ± 0.0011 | 0.3001 ± 0.0012 | 0.3869 ± 0.0015 | 0.4408 ± 0.0018 | 0.4932 ± 0.002 | 0.6227 ± 0.0025 | 0.7132 ± 0.0029
m1 = 0.09398 | 2.604 ± 0.01 | 2.872 ± 0.011 | 3.684 ± 0.015 | 4.19 ± 0.017 | 4.673 ± 0.019 | 5.872 ± 0.024 | 6.722 ± 0.027
m1 = 0.4603 | 11.98 ± 0.048 | 13.14 ± 0.053 | 16.69 ± 0.067 | 18.97 ± 0.076 | 21.09 ± 0.084 | 26.23 ± 0.1 | 29.87 ± 0.12
m1 = 0.85 | 20.2 ± 0.081 | 22.06 ± 0.088 | 27.9 ± 0.11 | 31.53 ± 0.13 | 34.95 ± 0.14 | 43.45 ± 0.17 | 48.24 ± 0.19

[Br-].[K+] [potassium bromide] + O
electrical conductivity [S/m]
Settings | 278.15 K | 283.15 K | 298.15 K | 308.15 K | 318.15 K | 343.15 K | 363.15 K
m1 = 9.9e-05 | 0.0009344 ± 3.7e-06 | 0.001066 ± 4e-06 | 0.001469 ± 6e-06 | 0.00175 ± 7e-06 | 0.002072 ± 8e-06 | 0.002896 ± 1.2e-05 | 0.003522 ± 1.4e-05
m1 = 0.000975 | 0.009114 ± 3.6e-05 | 0.01037 ± 4e-05 | 0.01441 ± 6e-05 | 0.01716 ± 7e-05 | 0.02007 ± 8e-05 | 0.02802 ± 0.00011 | 0.0343 ± 0.00014
m1 = 0.00987 | 0.08994 ± 0.00036 | 0.1022 ± 0.0004 | 0.1417 ± 0.0006 | 0.1689 ± 0.0007 | 0.1974 ± 0.0008 | 0.2761 ± 0.0011 | 0.3376 ± 0.0014
m1 = 0.09755 | 0.8252 ± 0.0033 | 0.9355 ± 0.0037 | 1.29 ± 0.0052 | 1.535 ± 0.0061 | 1.787 ± 0.0071 | 2.491 ± 0.01 | 2.952 ± 0.012
m1 = 1.21 | 8.409 ± 0.034 | 9.363 ± 0.037 | 12.45 ± 0.05 | 14.54 ± 0.058 | 16.72 ± 0.067 | 22.46 ± 0.09 | 26.28 ± 0.11

[Ca+2].[Cl-].[Cl-] [calcium chloride] + O
electrical conductivity [S/m]
Settings | 278.15 K | 283.15 K | 298.15 K | 308.15 K | 318.15 K | 343.15 K | 363.15 K
m1 = 7.6e-05 | 0.001256 ± 5e-06 | 0.001432 ± 6e-06 | 0.001998 ± 8e-06 | 0.002384 ± 1e-05 | 0.002814 ± 1.1e-05 | 0.004073 ± 1.6e-05 | 0.00517 ± 2e-05
m1 = 0.000755 | 0.01195 ± 5e-05 | 0.01369 ± 6e-05 | 0.01945 ± 8e-05 | 0.02351 ± 9e-05 | 0.02784 ± 0.00011 | 0.03992 ± 0.00016 | 0.05001 ± 0.0002
m1 = 0.00755 | 0.1103 ± 0.0004 | 0.1263 ± 0.0005 | 0.1792 ± 0.0007 | 0.216 ± 0.0009 | 0.2547 ± 0.001 | 0.3636 ± 0.0015 | 0.4547 ± 0.0018
m1 = 0.0755 | 0.9331 ± 0.0037 | 1.062 ± 0.0042 | 1.496 ± 0.006 | 1.793 ± 0.0072 | 2.11 ± 0.0084 | 2.982 ± 0.012 | 3.694 ± 0.015
m1 = 0.3773 | 4.179 ± 0.017 | 4.73 ± 0.019 | 6.531 ± 0.026 | 7.792 ± 0.031 | 9.092 ± 0.036 | 12.66 ± 0.051 | 15.58 ± 0.062
